From US11028212B2, “Chloroprene graft copolymer latex, method for producing same, bonding agent and adhesive” (SHOWA DENKO K.K., priority 2016, dated 2021)

Format: physicochemical
Details: polymerization initiator
Text: The octanol/water partition coefficient is also expressed as LogPow and is an index representing hydrophobicity (solubility in lipid) of a chemical substance. The measurement method of the octanol/water partition coefficient is basically in accordance with OECD Test Guideline (“C (81) 30 appendix 1” determined by OECD Board of Directors) 107 or Japanese Industrial Standards Z7260-107 (2000), “Determination of partition coefficient (1-octanol/water)-Shake flask method”.

CC(C)(C)OO [t-butyl hydroperoxide]
octanol/water partition coefficient: −1.3
